According to PubChem BioAssay (NCI):
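96-well plates; 48 h exposure; 5 concentrations. Endpoints by linear interpolation between flanking doses. Not reached: highest tested concentration assigned. TGI is the concentration that stops growth completely.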 Where a SMILES comes first, the peptide text is derived from it. [ ]: non-standard residue; d: D form. The star is where a group is joined. NMeF = CN[CH](Cc1ccccc1)C(=O)O; NMeV = CN[CH](C(=O)O)C(C)C; Boc = CC(C)(C)OC(=O)*

Assays:
Test in all cases: DTP human tumour cell line panel, 48 h
786-0 renal = tested on: 786-0 renal
A549 NSCLC = tested on: A549 NSCLC
ACHN renal = tested on: ACHN renal
CCRF-CEM leukemia = tested on: CCRF-CEM leukemia
COLO 205 colon = tested on: COLO 205 colon
DMS 114 small cell lung = tested on: DMS 114 small cell lung
DMS 273 small cell lung = tested on: DMS 273 small cell lung
EKVX NSCLC = tested on: EKVX NSCLC
HCC-2998 colon = tested on: HCC-2998 colon
HCT-116 colon = tested on: HCT-116 colon
HCT-15 colon = tested on: HCT-15 colon
HL-60(TB) leukemia = tested on: HL-60(TB) leukemia
HOP-62 NSCLC = tested on: HOP-62 NSCLC
HT29 colon = tested on: HT29 colon
IGROV1 ovarian = tested on: IGROV1 ovarian
K-562 leukemia = tested on: K-562 leukemia
KM12 colon = tested on: KM12 colon
KM20L2 colon = tested on: KM20L2 colon
LOX IMVI melanoma = tested on: LOX IMVI melanoma
LXFL 529 NSCLC = tested on: LXFL 529 NSCLC
M14 melanoma = tested on: M14 melanoma
M19-MEL melanoma = tested on: M19-MEL melanoma
MALME-3M melanoma = tested on: MALME-3M melanoma
MOLT-4 leukemia = tested on: MOLT-4 leukemia
NCI-H226 lung = tested on: NCI-H226 lung
NCI-H23 lung = tested on: NCI-H23 lung
NCI-H460 lung = tested on: NCI-H460 lung
NCI-H522 lung = tested on: NCI-H522 lung
OVCAR-3 ovarian = tested on: OVCAR-3 ovarian
OVCAR-8 ovarian = tested on: OVCAR-8 ovarian
RPMI-8226 leukemia = tested on: RPMI-8226 leukemia
RXF 393 renal = tested on: RXF 393 renal
SF-268 CNS = tested on: SF-268 CNS
SF-295 CNS = tested on: SF-295 CNS
SF-539 CNS = tested on: SF-539 CNS
SK-MEL-28 melanoma = tested on: SK-MEL-28 melanoma
SK-MEL-5 melanoma = tested on: SK-MEL-5 melanoma
SN12C renal = tested on: SN12C renal
SNB-19 CNS = tested on: SNB-19 CNS
SR leukemia = tested on: SR leukemia
SW-620 colon = tested on: SW-620 colon
TK-10 renal = tested on: TK-10 renal
U251 CNS = tested on: U251 CNS
UACC-257 melanoma = tested on: UACC-257 melanoma
UACC-62 melanoma = tested on: UACC-62 melanoma
UO-31 renal = tested on: UO-31 renal
XF 498 CNS = tested on: XF 498 CNS
A498 renal = tested on: A498 renal
CAKI-1 renal = tested on: CAKI-1 renal
DLD-1 colon = tested on: DLD-1 colon
HOP-18 NSCLC = tested on: HOP-18 NSCLC
HOP-92 NSCLC = tested on: HOP-92 NSCLC
OVCAR-4 ovarian = tested on: OVCAR-4 ovarian
OVCAR-5 ovarian = tested on: OVCAR-5 ovarian
SK-MEL-2 melanoma = tested on: SK-MEL-2 melanoma
SK-OV-3 ovarian = tested on: SK-OV-3 ovarian
SNB-75 CNS = tested on: SNB-75 CNS
SNB-78 CNS = tested on: SNB-78 CNS

Compound: CC(C)C(NC(=O)OC(C)(C)C)C(=O)N(C)C(Cc1ccccc1)C(=O)N(C)C(C(=O)N(C)C(C(=O)O)C(C)C)C(C)C (configuration not stated) (Boc-V[NMeF][NMeV][NMeV]-OH; configuration not given here)
- TGI (786-0 renal): > 100 µM
- TGI (A549 NSCLC): > 100 µM
- TGI (ACHN renal): > 100 µM
- TGI (CCRF-CEM leukemia): > 100 µM
- TGI (COLO 205 colon): > 100 µM
- TGI (DMS 114 small cell lung): > 100 µM
- TGI (DMS 273 small cell lung): > 100 µM
- TGI (EKVX NSCLC): > 100 µM
- TGI (HCC-2998 colon): > 100 µM
- TGI (HCT-116 colon): > 100 µM
- TGI (HCT-15 colon): > 100 µM
- TGI (HL-60(TB) leukemia): > 100 µM
- TGI (HOP-62 NSCLC): > 100 µM
- TGI (HT29 colon): > 100 µM
- TGI (IGROV1 ovarian): > 100 µM
- TGI (K-562 leukemia): > 100 µM
- TGI (KM12 colon): > 100 µM
- TGI (KM20L2 colon): > 100 µM
- TGI (LOX IMVI melanoma): > 100 µM
- TGI (LXFL 529 NSCLC): > 100 µM
- TGI (M14 melanoma): > 100 µM
- TGI (M19-MEL melanoma): > 100 µM
- TGI (MALME-3M melanoma): > 100 µM
- TGI (MOLT-4 leukemia): > 100 µM
- TGI (NCI-H226 lung): > 100 µM
- TGI (NCI-H23 lung): > 100 µM
- TGI (NCI-H460 lung): > 100 µM
- TGI (NCI-H522 lung): > 100 µM
- TGI (OVCAR-3 ovarian): > 100 µM
- TGI (OVCAR-8 ovarian): > 100 µM
- TGI (RPMI-8226 leukemia): > 100 µM
- TGI (RXF 393 renal): > 100 µM
- TGI (SF-268 CNS): > 100 µM
- TGI (SF-295 CNS): > 100 µM
- TGI (SF-539 CNS): > 100 µM
- TGI (SK-MEL-28 melanoma): > 100 µM
- TGI (SK-MEL-5 melanoma): > 100 µM
- TGI (SN12C renal): > 100 µM
- TGI (SNB-19 CNS): > 100 µM
- TGI (SR leukemia): > 100 µM
- TGI (SW-620 colon): > 100 µM
- TGI (TK-10 renal): > 100 µM
- TGI (U251 CNS): > 100 µM
- TGI (UACC-257 melanoma): > 100 µM
- TGI (UACC-62 melanoma): > 100 µM
- TGI (UO-31 renal): > 100 µM
- TGI (XF 498 CNS): > 100 µM

Compound: O=C1C=C(Nc2ccccc2C(=O)c2ccccc2)c2ccccc2C1=O
- TGI (786-0 renal): > 100 µM
- TGI (A498 renal): > 100 µM
- TGI (A549 NSCLC): > 100 µM
- TGI (ACHN renal): > 100 µM
- TGI (CAKI-1 renal): > 100 µM
- TGI (COLO 205 colon): > 100 µM
- TGI (DLD-1 colon): > 100 µM
- TGI (DMS 114 small cell lung): > 100 µM
- TGI (DMS 273 small cell lung): > 100 µM
- TGI (EKVX NSCLC): > 100 µM
- TGI (HCC-2998 colon): > 100 µM
- TGI (HCT-116 colon): > 100 µM
- TGI (HCT-15 colon): > 100 µM
- TGI (HOP-18 NSCLC): > 100 µM
- TGI (HOP-62 NSCLC): > 100 µM
- TGI (HOP-92 NSCLC): > 100 µM
- TGI (HT29 colon): > 100 µM
- TGI (IGROV1 ovarian): > 100 µM
- TGI (KM12 colon): > 100 µM
- TGI (KM20L2 colon): > 100 µM
- TGI (LXFL 529 NSCLC): > 100 µM
- TGI (M14 melanoma): > 100 µM
- TGI (M19-MEL melanoma): 33.2 µM
- TGI (MALME-3M melanoma): > 100 µM
- TGI (NCI-H226 lung): > 100 µM
- TGI (NCI-H23 lung): > 100 µM
- TGI (NCI-H460 lung): > 100 µM
- TGI (NCI-H522 lung): 55.9 µM
- TGI (OVCAR-3 ovarian): > 100 µM
- TGI (OVCAR-4 ovarian): > 100 µM
- TGI (OVCAR-5 ovarian): > 100 µM
- TGI (OVCAR-8 ovarian): > 100 µM
- TGI (RPMI-8226 leukemia): > 100 µM
- TGI (RXF 393 renal): > 100 µM
- TGI (SF-268 CNS): > 100 µM
- TGI (SF-295 CNS): > 100 µM
- TGI (SF-539 CNS): > 100 µM
- TGI (SK-MEL-2 melanoma): > 100 µM
- TGI (SK-MEL-28 melanoma): > 100 µM
- TGI (SK-OV-3 ovarian): > 100 µM
- TGI (SN12C renal): > 100 µM
- TGI (SNB-19 CNS): > 100 µM
- TGI (SNB-75 CNS): > 100 µM
- TGI (SNB-78 CNS): > 100 µM
- TGI (SR leukemia): > 100 µM
- TGI (SW-620 colon): > 100 µM
- TGI (U251 CNS): > 100 µM
- TGI (UACC-257 melanoma): 27.9 µM
- TGI (UACC-62 melanoma): > 100 µM
- TGI (UO-31 renal): > 100 µM
